This note sets out measurements from patent publication US12139531B2, “Compositions and methods useful in promoting milk production” (The Regents of the University of California, priority 2019, dated 2024).

For one assay, the system named is HEK-293 cells. The assay can be described thus: Dot blot dilution assay of ROBO1-Ig5 secretion into media of transfected HEK-293 cells. Format: cell-based. The settings on record: heparin 300 ng/ml, media days two, four, six. An excerpt:
Three recombinant ROBO1 ECD constructs were constructed: one comprising two immunoglobulin (Ig) domains (ROBO1-Ig2), another comprising all five Ig domains (ROBO1-Ig5), and another comprising the entire extracellular domain (ROBO1-Ecto) (FIG. 6A). In other constructs, HA (hemagglutinin), Myc, and human and mouse immunoglobulin Fc were fused to the Robo1 ECDs (FIG. 6A, 5F right). Extracellular domains of Deleted in Colorectal Cancer (DCC), a structurally similar Ig superfamily member to ROBO1, comprising either two Ig (DCC-Ig2) or four Ig (DCC-Ig4) domains and tagged with HA were constructed for use as negative controls (FIG. 6A, 5F right). Expression secretion of the constructs was confirmed by overexpressing the constructs in HEK293 cells and performing Western blots on cell lysates and media (FIG. 6B). […] Robo1-Ig5 as used herein was expressed in HEK-293 cells in the absence and presence of heparin (300 ng/ml). Media were collected from these ROBO1-Ig5 overexpressing cells on days two, four and six following plasmid transfection. Dot blot dilution assays of the collected media were performed to evaluate the relative secretion of this soluble ROBO1 ECD (FIG. 6C).

For the next assay, the system named is Notch signaling. The assay can be described thus: In vivo gamma secretase inhibitor treatment; RT-qPCR on FACS-purified alveolar progenitor cells. The conditions noted are these: GSI-treated vs vehicle-treated. More on the design: species or system mice. Here is the method:
(§1) In further work, Notch signaling was inhibited to attempt to reverse the Robo1−/− phenotype. A γ-inhibitor that has been previously employed successfully in vivo to inhibit Notch in several different organs^26-28, including the mammary gland^29, was selected. Mature virgin animals were treated for […] with 10 mg/kg of the GSI or vehicle control^29 (FIG. 4C). After the treatment, mammary glands were harvested and analyzed by FACS and qPCR. It was observed that Robo1−/− mammary glands contain a higher number of alveolar progenitor cells relative to WT controls (FIG. 4D). […] GSI treatment had no effect on the number of alveolar progenitor cells in WT animals (FIG. 4D).
Robo1−/− alveolar progenitor cells (AVPs) expressed higher levels of Hey1 and Hes1 with vehicle treatment compared to AVPs from vehicle-treated WT animals (FIG. 4E). […] Vehicle-treated Robo1−/− alveolar progenitor cells (AVPs) expressed lower levels of Elf5 than AVPs from vehicle-treated WT animals (FIG. 4E). This is consistent with the observation of lower levels of ELF5 expression in Robo1−/− compared to Robo1+/+ mammary glands (FIG. 2H), and lower Elf5 in Robo1 knockdown compared to control (Scr) HC11 cells (FIG. 3C). […] In the absence of Robo1, NOTCH4 is activated—an effect that is reversed by either pharmacological inhibition of Notch signaling (FIGS. 4E, 3E, 3F, 3I-K) or knockdown of Notch4 gene expression (FIGS. 3F,G).
(§2) GSI inhibitor (R04929097; MedchemExpress) was orally administer at 10 mg/kg for 5 days as described^29. Mammary glands were harvest after 5 days of GSI or vehicle treatment and prepared for single cell analysis. Purified populations were collected and processed for RNA. Purified population numbers were analyzed using FlowJo.
(§3) Total RNA was harvested from cells lysed in TRIzol reagent (Invitrogen) and phase separated according to manufacturer's protocol with an additional overnight RNA precipitation stem in ethanol (Macias et al., 2011). The RNA was further purified with TURBO DNase (Ambion) treatment. Total RNA quality was analyzed by agarose gel electrophoresis and quantified with an ND-1000 spectrophotometer (NanoDrop). cDNA libraries were prepared from 1 μg of total RNA using iScript cDNA synthesis kit (BioRad). Quantitative RT-PCR was performed in triplicates using light Cycler 480 SYBR Green I Master (Roche) and quantified using BioRad CFX'Connect Real-Time System and CFX Manager software (BioRad). Results were normalized to GAPDH.

The next assay concerns NOTCH4. As to the kind of experiment: Cell fractionation and Western blot for HES1 and NOTCH4-ICD in HC11 cells. Format: cell-based, mouse. The conditions noted are these: siR1+GSI, primed/differentiated HC11 cells, nuclear fraction. As to the method:
Notch receptor activation can be regulated through direct interactions with binding partners^24. […] To address this possibility, co-immunoprecipitation experiments were performed using MBA-MD-231 cells lysates, which express detectable levels of all four Notch receptors (NOTCH1-4). Endogenous ROBO1 co-immunoprecipitated with NOTCH4, but not […], NOTCH2 or NOTCH3 (FIG. 3H and data not shown). Next, the expression and subcellular localization of the NOTCH4 intracellular domain (N4-ICD) and HES1 was examined in control (Scr) and Robo1 (siR1) knockdown HC11 cells. Expression of Robo1 was inhibited in HC11 cells that were then primed for differentiation as described above. […] This effect was not observed in control Robo1 knockdown cells engineered to overexpress Robo1 (siR1+o/e) or cells treated with the γ-secretase inhibitor GSI (siR1+GSI) (FIGS. 3I-3K).
To examine the effects of ROBO1-ECD fragments on Notch signaling, HC11 cells were treated with ROBO1-ECD fragments and Notch effector expression assessed. […] In addition, HC11 cells were treated with ROBO-Ig5 during differentiation. These cells were then fractionated and a Western blot performed to detect HES1 and NOTCH4-ICD (FIG. 8B).
Protein lysates were prepared by directly lysing adherent cells in 1× sample buffer supplemented with 5% beta-mercaptoethanol and boiled for 5 minutes. Protein lysate was resolved by SDS-PAGE and transferred to a PVDF for 90 minutes at 400 mA or overnight at 30 mA. Primary antibodies were used at the concentration indicated in Table 1 and incubated overnight at 4° C. HRP conjugated secondary antibodies (Jackson Labs) were used at 1:3000 and incubated for 45 minutes at room temp. All proteins were detected using Clarity ECL (BioRad) using a BioRad Chemi-Doc MP Imager and quantified using ImageLab software as previously described a.
On the technique in general: In western blotting, separated proteins are transferred to a membrane and probed.

Assay [1] deals with HC11 cells. As to the kind of experiment: HC11 dome assay (milk dome formation on differentiation in DIP media). It counts as cell-based, mouse. The conditions noted are these: for dome formation in response to a titration of ECD fragments: HC11 cells, increasing ECD concentration. Here is the method:
To investigate ROBO1 function during alveologenesis, Robo1 gene expression was inhibited in HC11 cells (Robo1 KD). HC11 cells are a well-established, prolactin-responsive model of lactation,^19,20. Cells in which Robo1 gene expression was not inhibited are referred to as WT or Robo1+/+ herein. To measure milk production, cells were grown to confluence and then primed by treatment with epidermal growth factor (EGF, 10 ng/ml). The EGF is administered for three days in combination with charcoal-stripped fetal bovine serum, followed by one day of charcoal-stripped fetal bovine serum in the absence of EGF. These primed cells are then differentiated by treatment with dexamethasone (1 μg/ml), insulin (5 μg/ml) and prolactin (Prl, 5 μg/ml) media (DIP media) for between 3 and 5 days (FIG. 2A). Differentiation (Dif) results in the development of milk-filled domes (FIG. 2B). […] If the cells were left undifferentiated (Undif), there was little dome formation in either WT or Robo1−/− cells (FIG. 2B). Next, tissue from Robo1 knockout mice (Robo1−/−) and wild type mice (WT or Robo1+/+) mice was analyzed. Mammary glands were harvested from pregnant day 18 WT and Robo1−/− animals and alveologenesis analyzed by serially sectioning, carmine staining and then quantifying the area occupied by alveoli in sections located at top, middle and bottom portions of the tissue.
Dome number formation in response to a titration of ROBO1 ECD fragments was quantified. […] A bovine ROBO1-Ig5 construct was also tested in this assay and, as with the rat constructs, more domes were formed in response to treatment with higher concentrations of […] (FIG. 7H).
(§4) HC11 cells were grown in RPMI 1640 media (Gibco) supplemented with 10% fetal bovine serum (BioFluid Technologies), 5 μg/mL insulin (Sigma), and 10 ng/ml epidermal growth factor (EGF; Sigma). To induce differentiation in HC11 cells, confluent plates were given fresh media (RPMI 1640 media supplemented with 5% charcoal-stripped fetal bovine serum (BioFluid Technologies), 5 μg/mL insulin, and 10 ng/ml epidermal growth factor (EGF; Sigma) for 3 days followed by 24 hours of priming in priming medium (RPMI 1640 media supplemented with 5% charcoal-stripped fetal bovine serum (BioFluid Technologies), and 5 μg/mL insulin. After priming, DIP medium (RPMI 1640 media supplemented with 5% charcoal-stripped fetal bovine serum (BioFluid Technologies), 10^−6 M dexamethasone (Sigma), 5 μg/mL insulin, and 5 μg/mL prolactin (National Hormone and Peptide program) was added with fresh media every 24 hours.

A further assay deals with Notch. As to the kind of experiment: In vivo gamma secretase inhibitor treatment; number of FACS-purified alveolar progenitor cells. Further details: species or system mice. The conditions noted are these: 10 mg/kg GSI orally, mature virgin. As to the method: as §1
Mechanically dissociated inguinal and thoracic mammary fat pads were prepared into cell suspension for FACS as described^17. AVPs were isolated using FITC-CD14 (clone Sa14-2; BioLegend) and […] (clone 2B8; BioLegend) as described^14.
as §2

For assay [2], the system named is HC11 cells. As to the kind of experiment: RT-qPCR of milk genes (WAP, Lalba) in differentiated HC11 cells. It counts as cell-based, mouse. Here is the method: To determine whether the promotion of dome formation also results in higher milk production, HC11 cells were differentiated in the presence or absence of ROBO1-ECD fragments that were added to cells simultaneously with DIP media. Cells were harvested and the expression of WAP and Lalba assessed by RT-qPCR. […] WAP expression levels were not increased in cells treated with DCC-Ig4 (FIG. 7K). Next, Western blot analysis of WAP and PLIN2 was performed on cells treated with ROBO1-Ig5 and ROBO1-Ecto.
as §4
as §3, with “Results were normalized to GAPDH.” left out
A general note: Quantitative PCR measures a nucleic acid by following its amplification.

“Also recorded” adds a separate entry of the source.

In the case of heparin, the figures for the “secretion of soluble ROBO1-Ig5” value with HEK-293 cells and in the assay with HEK-293 cells (listed as Heparin) were “trend of greater secretion” and “modestly increases”, respectively.

On to `CC(C)(C(=O)NCC(F)(F)C(F)(F)F)C(=O)N[C@@H]1C(=O)Nc2ccccc2-c2ccccc21` [GSI], for which, in the assay on Notch signaling (Robo1+/+ animals), the “Hes1 expression in AVPs” value was “less expression; also recorded: decreased” and the “Hey1 expression in AVPs” value was “less expression; also recorded: decreased”. Also, in the assay on Notch signaling (Robo1-/- animals), the “Elf5 expression in AVPs” value is “higher; also recorded: rescued”, the “Hes1 expression in AVPs” value is “lower; also recorded: rescued” and the “Hey1 expression in AVPs” value was “lower; also recorded: rescued”. Moreover, in the assay with NOTCH4, the “higher nuclear HES1 in Robo1 knockdown cells” value was “not observed; also recorded: rescues the effect” and the “higher nuclear NOTCH4 intracellular domain (N4-ICD) in Robo1 knockdown cells” value is recorded as “not observed; also recorded: rescues the effect”. Besides, in the assay on HC11 cells [1] (Robo1 KD HC11 cells plus GSI), the “decreased dome formation in Robo1 knockdown (KD) HC11 cells” value is “rescued”. Besides, the “number of alveolar progenitor cells” value in the assay on Notch (Robo1-/- animals) is “same number of alveolar progenitor cells as WT animals”. The “number of alveolar progenitor cells” value with Notch (WT animals) is “no effect”. Moreover, in the assay on HC11 cells [2] (siR1+GSI), the “decreased Lalba expression in Robo1 knockdown (siR1) HC11 cells” value was “rescued” and the “decreased WAP expression in Robo1 knockdown (siR1) HC11 cells” value is given as “rescued”.

B1: bovine ROBO1-Ig5: bovine ROBO1-Ig5 construct (Bos taurus ROBO1-Ig5, SEQ ID NO: 2) (protein, listed as Bos taurus)
chain: MIAEPAHFYLFGLICLCSGSRLRQEDFPPRIVEHPSDLIVSKGEPATLNCKAEGRPTPTIEWYKGGERVETDKDDPRSHRMLLPSGSLFFLRIVHGRKSRPDEGVYVCVARNYLGEAVSHNASLEVAILRDDFRQNPSDVMVAVGEPAVMECQPPRGHPEPTISWKKDGSPLDDKDERITIRGGKLMITYTRKSDAGKYVCVGTNMVGERESEVAELTVLERPSFVKRPSNLAVTVDDSAEFKCEARGDPVPTVRWRKDDGELPKSRYEIRDDHTLKIRKVTAGDMGSYTCVAENMVGKAEASATLTVQVGSEPPHFVVKPRDQVVALGRTVTFQCEATGNPQPAIFWRREGSQNLLFSYQPPQSSSRFSVSQTGDLTITNVQRSDVGYYICQTLNVAGSIITKAYLEVTDVIADRPPPVIRQGPVNQTVAVDGTLVLSCVATGSPVPTILWRKDGVLVSTQDSRIKQLETGVLQIRYAKLGDTGRYTCIASTPSGEATWSAYIEVQEF
As for B1, the “dome formation in response to a titration of ECD fragments” value in the assay with HC11 cells [1] is “more domes; also recorded: increasing dome formation”.

B2: DCC-Ig4: extracellular domain of Deleted in Colorectal Cancer comprising four Ig domains, HA tagged, negative control (protein, listed as Rattus norvegicus)
chain: FTSLHFVSEPSDAVTMRGGNVLLNCSAESDRGVPVIKWKKDGLILALGMDDRKQQLPNGSLLIQNILHSRHHKPDEGLYQCEASLGDSGSIISRTAKVMVAGPLRFLSQTESITAFMGDTVLLKCEVIGDPMPTIHWQKNQQDLNPIPGDSRVVVLPSGALQISRLQPGDSGVYRCSARNPASTRTGNEAEVRILSDPGLHRQLYFLQRPSNVIAIEGKDAVLECCVSGYPPPSFTWLRGEEVIQLRSKKYSLLGGSNLLISNVTDDDSGTYTCVVTYKNENISASAELTVLVPPWFLNHPSNLYAYESMDIEFECAVSGKPVPTVNWMKNGDVVIPSDYFQIVGGSNLRILGVVKSDEGFYQCVAENEAGNAQSSAQLI
modifications: HA tag
notes: extracellular domain of Deleted in Colorectal Cancer comprising four Ig domains, HA tagged, negative control
Turning to B2, in the assay on HC11 cells [1], the “dome formation in response to a titration of ECD fragments” value is “not observed”. In addition, the “WAP gene expression by RT-qPCR” value in the assay with HC11 cells [2] (HC11 cells, ECD fragments added simultaneously with DIP media, DCC-Ig4 0.7 μM) is on record as “not increased; also recorded: no change”.
